Assay results from patent US20110243854A1, “Methods and systems for identifying modulators of longevity” (The Regents of the University of California, priority 2007, published 2011).
“Also recorded” adds a separate entry of the source.

Tests used:
wild-type flies = details: cited from earlier work
[1] = tested on: flies with reduced life span due to Cu/ZnSOD and MnSOD deficiency; details: Cu/ZnSOD and MnSOD deficient flies; cited from earlier work
NF1^P1/P2 flies = assay: Longevity assay, NF1 mutant flies fed catalytic antioxidants; assay type: in vivo, Drosophila melanogaster; details: for increase in survivorship: NF1^P1/P2 flies fed the antioxidant; for effect on life span of NF1 mutant flies (in words): feeding 10 μM, NF1^P1/P2 males and females
Procedure: Life spans were determined at 25° C. and 50% humidity with a 12-h light/dark cycle. Male and female flies were collected under brief CO2 anesthesia 2 to 3 d after eclosion, allowing time for mating. The number of deceased flies was recorded every 2 to 3 d, when flies were transferred to fresh cornmeal agar medium. Both Statview 5.0 and Prism GraphPad software were used for survival data and mortality curves analysis. Survival data were analyzed by Kaplan-Meier analysis in Statview 5.0. The log-rank (Mantel-Cox) test results are presented. Censored data were recorded and analyzed with GraphPad software.
(§1) MnTBAP (Oxis) and MnTDEIP (Aeolus Pharmaceuticals) were dissolved in PBS (Mediatech) before further dilution with cornmeal food to make desired concentration. Red food dye (six drops per 500 ml food) was added to the food to ensure homogeneity.

NF1^P1/P2 mutants = assay: Locomotive (up-climbing) recovery after heat stress, antioxidant-fed NF1 mutants; assay type: in vivo, Drosophila melanogaster; details: 20 min 37° C. heat stress
Procedure: Locomotive assays were performed on 3- to 4-d-old flies. Flies were placed in 90 mm×20 mm vertical tubes containing a small quantity of cornmeal food at the bottom with a line drawn horizontally 10 mm from the base. Every 5 min, the vials were tapped until the flies were at the bottom of the vials. Then, flies were given 15 s to climb (up-climbing behavior) toward the top of the vial, and the numbers of flies above the 10 mm line were recorded. The locomotive index is the percentage of flies that climbed up after 15 s. After 30 min of baseline recording at 22° C., flies were subjected to a brief 20-min heat treatment at 37° C. and were then returned to 22° C. for recovery. The locomotive index was then plotted against time over the course of the experiment to determine the recovery time (τ).
as §1

[2] = tested on: mitochondrial ROS production; details: cited from earlier work
w^1118 flies = assay: Longevity assay, w^1118 flies fed cAMP analogs; assay type: in vivo, Drosophila melanogaster
Procedure: Male and female flies were collected under brief CO2 anesthesia 2 to 3 d after eclosion, allowing time for mating. The number of deceased flies was recorded every 2 to 3 d, when flies were transferred to fresh cornmeal agar medium. Both Statview 5.0 and Prism GraphPad software were used for survival data and mortality curves analysis. Survival data were analyzed by Kaplan-Meier analysis in Statview 5.0. The log-rank (Mantel-Cox) test results are presented. […] The stock solutions were subsequently diluted into food to make the specific concentrations of 1 μM and 10 μM. Red food dye (six drops per 500 ml food) was added to the supplemented food to insure homogeneity.

Compound	effect on life span (in words) (wild-type flies)	effect on life span (in words) [1]	increase in survivorship (NF1^P1/P2 flies)	effect on life span of NF1 mutant flies (in words) (NF1^P1/P2 flies)	recovery of locomotive performance after heat stress (in words) (NF1^P1/P2 mutants)	also measured
[Cl-].[Mn+3].[O-]c1ccccc1C=NCCN=Cc1ccccc1[O-] [EUK-8, manganese N,N′-bis(salicyidene) ethylenediamine chloride]	shortened their life spans	partially restored normal life span				
COC1=C(OC)C(=O)C(CCCCCCCCCC[P+](c2ccccc2)(c2ccccc2)c2ccccc2)=C(C)C1=O [MitoQ]	shortened their life spans	partially restored normal life span				
O=C(O)c1ccc(-c2c3nc(c(-c4ccc(C(=O)O)cc4)c4ccc([n-]4)c(-c4ccc(C(=O)O)cc4)c4nc(c(-c5ccc(C(=O)O)cc5)c5ccc2[n-]5)C=C4)C=C3)cc1.[Mn+3] [MnTBAP, Mn(III)tetrakis(4-benzoic acid) porphyrin]			approximately 50%	restores normal life span; also recorded: extended	enhanced the recovery rate of locomotive performance; also recorded: rescued delayed heat stress recovery time	mitochondrial ROS production and oxidative damage (in words) [2]: reduce mitochondrial ROS production and oxidative damage
CCCC(=O)Nc1ncnc2c1ncn2[C@@H]1O[C@@H]2COP(=O)(O)O[C@H]2[C@H]1OC(=O)CCC [db-cAMP, dibutyryl-cAMP]						increase in median life span (w^1118 flies; adult males fed 1 μM or 10 μM): 30%; increase in life span (w^1118 flies; females fed 1 μM): 60%; increase in life span (w^1118 flies; females fed 10 μM): > 100%; effect on life span of w^1118 flies (in words) (w^1118 flies; male and female w^1118 flies, 1 μM and 10 μM in food): extends life spans
tetrakis(1,3-diethyl imidazolium-2-yl) meso-substituted manganoporphyrin [MnTDEIP]			approximately 50%	extended	enhanced the recovery rate of locomotive performance; also recorded: rescued delayed heat stress recovery time	
